Results as given in publication PMC3169616, “Unique Residues Involved in Activation of the Multitasking Protease/Chaperone HtrA from Chlamydia trachomatis” (PLoS ONE, 2011).
No end group written: not given here. *: point of attachment. pNA = O=[N+]([O-])c1ccc(N*)cc1

Tests used:
CtHtrA [1] = biological target: T1, CtHtrA (Chlamydia trachomatis serovar D, UniProt P18584); assay: Protease assay and kinetic analysis with pNA-labelled peptide substrates; type: biochemical; conditions: pNA peptide as substrate, absorbance 405 nm, 37°C; for Vmax: reading every 10 s for 30 min
T1 construct: His-tag; made in house; host or cells: E. coli BL21 (DE3), plasmid pETHtrA
T1 sequence (P18584 17-497): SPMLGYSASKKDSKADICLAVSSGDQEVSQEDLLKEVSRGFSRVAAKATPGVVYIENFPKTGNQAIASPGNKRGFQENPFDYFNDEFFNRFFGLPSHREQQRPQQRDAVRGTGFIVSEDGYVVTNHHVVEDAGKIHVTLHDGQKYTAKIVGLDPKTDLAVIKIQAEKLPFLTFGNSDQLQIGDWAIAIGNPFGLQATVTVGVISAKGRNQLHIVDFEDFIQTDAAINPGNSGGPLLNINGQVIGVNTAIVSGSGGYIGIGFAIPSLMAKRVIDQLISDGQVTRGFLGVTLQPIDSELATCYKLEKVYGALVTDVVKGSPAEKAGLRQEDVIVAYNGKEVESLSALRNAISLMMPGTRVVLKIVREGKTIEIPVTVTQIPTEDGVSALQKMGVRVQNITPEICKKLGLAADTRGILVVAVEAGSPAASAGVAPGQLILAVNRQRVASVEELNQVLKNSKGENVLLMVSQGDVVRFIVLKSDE
Experimental: A series of peptide substrates were then designed based on the cleavage sites previously identified in ß-casein [3], PICS results, previously published substrates for E. coli DegP [22], and the REPLi library screening results. These peptides were assayed against CtHtrA and kinetic analysis was conducted (Table 2). […] Generally, peptides with only 4 residues or less were not cleaved. […] The preference for K at P3 implies a salt bridge may be involved in substrate coordination in the CtHtrA active site in the substrate pocket or subsite S3. In a direct comparison between MFRLI-pNA and MFQLI-pNA, R was clearly the most preferred. […] The Km for each of these, however, was at least an order of magnitude higher than the Km for MFKLI-pNa. The results from individually synthesised peptides (Table 2) and the peptides sourced from the REPLi library (Table 1) were consistent in that non-polar sequences are most preferred. […] (Fig. S3).
The purified recombinant protein was examined by Coomassie stained polyacrylamide gels and activity was checked using ß-casein cleavage assays prior to use in peptide assays. Briefly, this involved incubating 2 µg of the protease with 10 µg of ß-casein in 50 mM Tris pH 7.0, 20 mM MgCl2 for 2 h prior to examining the assays by SDS PAGE (ß-casein and protease only controls were always conducted). Protease assays using peptides were conducted using custom synthesised peptides (Mimotopes). The peptides were purified to 95% purity (or greater) and were typically resuspended in 50% isopropanol, although some peptides required 100% DMSO. Protease assays using pNA labelled peptides were conducted using the xMARK Microplate spectrophotometer (Bio-Rad) at 405 nm, incubated at 37°C, with a reading taken every 10 s for 30 min. The maximum slope over a minimum of 8 readings was used for the data analysis. Other peptides were labelled with 7-methoxycoumarin-4-acetic acid (MCA, fluorophore) and 2,4-dinitrophenyl (DNP, quencher). The protease assays using these peptides were conducted in black plates at 37°C using the POLARstar Optima (BMG Labtech). The assays were excited at 340 nm and emission was detected at 405 nm with a gain of 1000, the assays were monitored every 20 s or at the minimum cycle time for up to 40 min. The Omega software was used to calculate the maximum rate from a minimum of 6 time points for each assay. The REPLi library of peptides (Mimotopes, Melbourne, Australia) was also assayed with CtHtrA in the POLARstar Optima using similar assay conditions to those described above. Substrate only and protease only assay controls were conducted for every experiment and protease assays were typically conducted in triplicate on at least two different days. The assay results shown are the maximal rate observed from three or more different assays and adjusted for protein concentration. The assay results shown for the fluorescent compounds have been normalised for the amount of fluorescent emission detected using a standard curve of known concentrations of the MCA fluorophore under the identical assay conditions. All of the peptides used in this work were synthesised commercially to 95% purity or greater (Mimotopes, Melbourne, Australia). All protease assays were conducted minimally in duplicate on three separate occasions.

CtHtrA [2] = biological target: T1, CtHtrA; assay: Oligomerisation assay (glutaraldehyde crosslinking, 3-8% TrisAcetate gel, silver stain); type: biochemical; conditions: wild type CtHtrA 2 mg/ml, 100 mM sodium phosphate pH 7.0, 10 mins at 37°C, 0.5% glutaraldehyde fixation
Experimental: E. coli DegP proteolysis activation involves the transition from resting hexamers via trimers to 12- and 24-mers following the peptide activator binding to the PDZ1 binding cleft. CtHtrA oligomer formation induced by Act1 addition was examined after incubation for 10 mins at 37°C. The wild type and mutant proteins were incubated with either the ß-casein based activator peptide (Act1), or with whole insulin (intact), or in the absence of any activator as a control. CtHtrA incubated in the absence of any added activators formed 24-mers with some hexamers detected after 10 mins (Fig. 5). […] The R299W mutant was present as hexamer and 24-mer in the control with no activator. […] The L302N mutant was not detected in any higher oligomeric form under any conditions. L302N was detected as faint hexamer and trimer but mostly monomer under all tested conditions (not visible on these gels). […] I365D was detected as hexamers, trimers, 12-mers, and some 24-mers when incubated in the absence of activators.
The oligomerisation of HtrA into 12- and 24-mer complexes has been independently detected for E. coli HtrA (DegP). The oligomerisation of HtrA (DegP) was triggered by peptides from digested ß-casein [18]. Assays to detect whether CtHtrA and site directed mutant protein oligomerisation was triggered by substrates were conducted essentially as previously described (Merdanovic et al., 2010). Briefly, 2 mg/ml protein solutions in 100 mM sodium phosphate buffer pH 7.0 were pre-incubated to the required temperature. The ligands (activator peptide, or insulin) were added and at 10 min, and the proteins were fixed using 0.5% glutaraldehyde. Samples were fixed at room temperature for 2 min prior to addition of 1 M Tris pH 7.5 to remove any excess glutaraldehyde. Samples were incubated for another 10 min at room temperature prior to addition of SDS PAGE reducing loading buffer. The protein samples were examined on 3–8% TrisAcetate gradient polyacrylamide gels (Novex, Invitrogen) by silver staining. The proteins used in this study were not initially denatured by treatment with urea as, the refolding, formation of oligomers, and protease activity was never successfully detected with denatured CtHtrA. All assays were conducted in duplicate on three separate occasions with at least two gels of each experiment completed for each assay condition.

| Substance | Kcat/Km (CtHtrA [1]) | Km (CtHtrA [1]) | Vmax (CtHtrA [1]) | CtHtrA oligomer formation induced by activator (CtHtrA [2]) |
| --- | --- | --- | --- | --- |
| DMPFKLT-pNA [Model E. coli substrate, T at P1] | 158.7 M⁻¹ s⁻¹ | 940 µM | 8.955 mM sec^−1, µM CtHtrA^−1 |  |
| DPMFKLI-pNA [Model E. coli substrate, I at P1] |  | 527 µM | 10.340 mM sec^−1, µM CtHtrA^−1 |  |
| DPMFKLL-pNA [Model E. coli substrate, L at P1] |  | 883 µM | 3.179 mM sec^−1, µM CtHtrA^−1 |  |
| DPMFKLP-pNA [Model E. coli substrate, P at P1] |  | 3870 µM | 2.917 mM sec^−1, µM CtHtrA^−1 |  |
| DPMFKLV-pNA [previously published E. coli DegP substrate [22], reference compound] | 241.2 M⁻¹ s⁻¹ | 323 µM | 4.678 mM sec^−1, µM CtHtrA^−1 |  |
| DPMFKQT-pNA [Model E. coli substrate, change P1 and P2] | 542.2 M⁻¹ s⁻¹ | 9.38 µM | 0.3165 mM sec^−1, µM CtHtrA^−1 |  |
| H-AESNFKMLEIEAE-OH [CtL0043, C-terminal 13 residues of outer membrane ß-barrel CtL0043] |  |  |  | activated mainly trimer formation with some 12-mer present |
| H-HDVLSPSLDEINVP-OH [PyKinC] |  |  |  | activated mainly trimer formation with some 12-mer present |
